Measured values as given in ChEMBL document CHEMBL1201861, “Genomics of Drug Sensitity in Cancer screening data, Wellcome Trust Sanger Institute”.

Experiments:
MKN-28 = assay: cells; assay type: functional, cell-based; details: Homo sapiens;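 also: cell viability assay read-out, IC50 reflects suppression of growth of human MKN-28 cells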
Description: SANGER: Inhibition of human MKN28 cell growth in a cell viability assay.

ChaGo-K-1 = assay: cells; assay type: functional, cell-based; details: Homo sapiens;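 also: growth inhibition of ChaGo-K-1 cells, read out with a cell viability assay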
Description: SANGER: Inhibition of human ChaGo-K-1 cell growth in a cell viability assay.

HOS = assay: cells; assay type: functional, cell-based; details: Homo sapiens;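 also: growth inhibition of human HOS cells, read out with a cell viability assay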
Description: SANGER: Inhibition of human HOS cell growth in a cell viability assay.

IGROV-1 = assay: cells; assay type: functional, cell-based; details: Homo sapiens;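 also: reduction of IGROV-1 cell growth, read out with a viability assay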
Description: SANGER: Inhibition of human IGROV-1 cell growth in a cell viability assay.

IST-SL2 = assay: cells; assay type: functional, cell-based; details: Homo sapiens;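 also: growth inhibition of human IST-SL2 cells, read out by a cell viability assay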
Description: SANGER: Inhibition of human IST-SL2 cell growth in a cell viability assay.

NCI-H2030 = assay: cells; assay type: functional, cell-based; details: Homo sapiens;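 also: growth inhibition of human NCI-H2030 cells, read out by a cell viability assay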
Description: SANGER: Inhibition of human NCI-H2030 cell growth in a cell viability assay.

JEG-3 = assay: cells; assay type: functional, cell-based; details: Homo sapiens;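 also: growth inhibition of human JEG-3 cells, read out with a cell viability assay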
Description: SANGER: Inhibition of human JEG-3 cell growth in a cell viability assay.

BCPAP = assay: cells; assay type: functional, cell-based; details: Homo sapiens;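 also: growth inhibition of BCPAP cells, read out in a cell viability assay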
Description: SANGER: Inhibition of human BCPAP cell growth in a cell viability assay.

BHT-101 = assay: cells; assay type: functional, cell-based; details: Homo sapiens
Description: SANGER: Inhibition of human BHT-101 cell growth in a cell viability assay.

A673 = assay: cells; assay type: functional, cell-based; details: Homo sapiens;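 also: growth inhibition of human A673 cells, read out through a cell viability assay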
Description: SANGER: Inhibition of human A673 cell growth in a cell viability assay.

SR = assay: cells; assay type: functional, cell-based; details: Homo sapiens
Description: SANGER: Inhibition of human SR cell growth in a cell viability assay.

HCC1937 = assay: cells; assay type: functional, cell-based; details: Homo sapiens;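 also: growth inhibition measured with a cell viability read-out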
Description: SANGER: Inhibition of human HCC1937 cell growth in a cell viability assay.

MHH-ES-1 = assay: cells; assay type: functional, cell-based; details: Homo sapiens
Description: SANGER: Inhibition of human MHH-ES-1 cell growth in a cell viability assay.

MC-CAR = assay: cells; assay type: functional, cell-based; details: Homo sapiens;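 also: growth inhibition of the human MC-CAR cell line, read out by a cell viability assay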
Description: SANGER: Inhibition of human MC-CAR cell growth in a cell viability assay.

FTC-133 = assay: cells; assay type: functional, cell-based; details: Homo sapiens
NCI-H1522 = assay: cells; assay type: functional, cell-based; details: Homo sapiens;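 also: growth inhibition of NCI-H1522 cells, read out with a cell viability assay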
Description: SANGER: Inhibition of human NCI-H1522 cell growth in a cell viability assay.

SW1573 = assay: cells; assay type: functional, cell-based; details: Homo sapiens;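 also: growth inhibition of SW1573 cells, read out with a cell viability assay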
Description: SANGER: Inhibition of human SW1573 cell growth in a cell viability assay.

G-401 = assay: cells; assay type: functional, cell-based; details: Homo sapiens
Description: SANGER: Inhibition of human G-401 cell growth in a cell viability assay.

MDA-MB-453 = assay: cells; assay type: functional, cell-based; details: Homo sapiens
Description: SANGER: Inhibition of human MDA-MB-453 cell growth in a cell viability assay.

KP-4 = assay: cells; assay type: functional, cell-based; details: Homo sapiens;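 also: human KP-4 cells, with growth inhibition read out through a cell viability assay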
Description: SANGER: Inhibition of human KP-4 cell growth in a cell viability assay.

NCCIT = assay: SANGER: Inhibition of human NCCIT cell growth in a cell viability assay.; assay type: functional, cell-based
5637 = assay: cells; assay type: functional, cell-based; details: Homo sapiens
Description: SANGER: Inhibition of human 5637 cell growth in a cell viability assay.

NCI-H2081 = assay: cells; assay type: functional, cell-based; details: Homo sapiens;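 also: growth inhibition of human NCI-H2081 cells, read out with a cell viability assay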
Description: SANGER: Inhibition of human NCI-H2081 cell growth in a cell viability assay.

NCI-H358 = assay: cells; assay type: functional, cell-based; details: Homo sapiens;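 also: growth inhibition of NCI-H358 human cells, read out with a cell viability assay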
Description: SANGER: Inhibition of human NCI-H358 cell growth in a cell viability assay.

SCC-25 = assay: cells; assay type: functional, cell-based; details: Homo sapiens;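 also: growth inhibition of SCC-25 cells, measured with a cell viability assay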
Description: SANGER: Inhibition of human SCC-25 cell growth in a cell viability assay.

EFM-19 = assay: cells; assay type: functional, cell-based; details: Homo sapiens;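 also: growth inhibition of human EFM-19 cells, measured in a cell viability assay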
Description: SANGER: Inhibition of human EFM-19 cell growth in a cell viability assay.

VM-CUB-1 = assay: cells; assay type: functional, cell-based; details: Homo sapiens;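 also: cell viability assay measuring growth inhibition of the human VM-CUB-1 cell line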
Description: SANGER: Inhibition of human VM-CUB-1 cell growth in a cell viability assay.

NCI-H1437 = assay: cells; assay type: functional, cell-based; details: Homo sapiens;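 also: growth inhibition of human NCI-H1437 cells, read out by a cell viability assay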
Description: SANGER: Inhibition of human NCI-H1437 cell growth in a cell viability assay.

NCI-H1793 = assay: cells; assay type: functional, cell-based; details: Homo sapiens;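 also: cell growth inhibition, read out by a cell viability assay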
Description: SANGER: Inhibition of human NCI-H1793 cell growth in a cell viability assay.

HMV-2 cell line = assay: cells; assay type: functional, cell-based; details: Homo sapiens;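 also: growth inhibition of HMV-II cells, read out with a cell viability assay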
Description: SANGER: Inhibition of human HMV-II cell growth in a cell viability assay.

MFE-280 = assay: cells; assay type: functional, cell-based; details: Homo sapiens;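 also: growth inhibition of MFE-280 cells, determined with a cell viability readout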
Description: SANGER: Inhibition of human MFE-280 cell growth in a cell viability assay.

NCI-H522 = assay: cells; assay type: functional, cell-based; details: Homo sapiens;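 also: cell viability assay measuring growth inhibition of human NCI-H522 cells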
Description: SANGER: Inhibition of human NCI-H522 cell growth in a cell viability assay.

KYSE-150 cell line = assay: cells; assay type: functional, cell-based; details: Homo sapiens;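 also: growth inhibition of human KYSE-150 cells, read out with a cell viability assay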
Description: SANGER: Inhibition of human KYSE-150 cell growth in a cell viability assay.

CAL-12T = assay: cells; assay type: functional, cell-based, Homo sapiens; details: Homo sapiens, CAL-12T;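 also: growth inhibition of human CAL-12T cells, read out with a cell viability assay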
Description: SANGER: Inhibition of human CAL-12T cell growth in a cell viability assay.

SAOS-2 = assay: cells; assay type: functional, cell-based; details: Homo sapiens;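 also: growth inhibition of human Saos-2 cells determined by a cell viability assay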
Description: SANGER: Inhibition of human Saos-2 cell growth in a cell viability assay.

MONO-MAC-6 = assay: cells; assay type: functional, cell-based; details: Homo sapiens;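 also: cell viability assay measuring growth inhibition of human MONO-MAC-6 cells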
Description: SANGER: Inhibition of human MONO-MAC-6 cell growth in a cell viability assay.

MHH-CALL-2 = assay: cells; assay type: functional, cell-based; details: Homo sapiens;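 also: growth inhibition of the cell line, read out in a cell viability assay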
Description: SANGER: Inhibition of human MHH-CALL-2 cell growth in a cell viability assay.

NCI-H727 = assay: cells; assay type: functional, cell-based; details: Homo sapiens;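 also: growth inhibition of human NCI-H727 cells, read out with a cell viability assay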
Description: SANGER: Inhibition of human NCI-H727 cell growth in a cell viability assay.

Raji = assay: cells; assay type: functional, cell-based; details: Homo sapiens;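 also: cell viability assay measuring inhibition of Raji cell growth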
Description: SANGER: Inhibition of human Raji cell growth in a cell viability assay.

HN = assay: cells; assay type: functional, cell-based; details: Homo sapiens
Description: SANGER: Inhibition of human HN cell growth in a cell viability assay.

NCI-H187 = assay: cells; assay type: functional, cell-based; details: Homo sapiens;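 also: growth inhibition of NCI-H187 cells, read out as cell viability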
Description: SANGER: Inhibition of human NCI-H187 cell growth in a cell viability assay.

Detroit 562 = assay: cells; assay type: functional, cell-based; details: Homo sapiens;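 also: growth inhibition of human Detroit 562 cells, read out by a cell viability assay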
Description: SANGER: Inhibition of human Detroit562 cell growth in a cell viability assay.

SW756 = assay: cells; assay type: functional, cell-based; details: Homo sapiens;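 also: growth inhibition of human SW756 cells, read out with a cell viability assay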
Description: SANGER: Inhibition of human SW756 cell growth in a cell viability assay.

SBC-5 = assay: cells; assay type: functional, cell-based; details: Homo sapiens;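 also: cell viability assay read-out, IC50 is the concentration that inhibits growth of the cells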
Description: SANGER: Inhibition of human SBC-5 cell growth in a cell viability assay.

JIYOYE = assay: cells; assay type: functional, cell-based; details: Homo sapiens
Description: SANGER: Inhibition of human JiyoyeP-2003 cell growth in a cell viability assay.

SKG-IIIa = assay: cells; assay type: functional, cell-based; details: Homo sapiens;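 also: cell growth inhibition, read out with a cell viability assay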
Description: SANGER: Inhibition of human SKG-IIIa cell growth in a cell viability assay.

YT = assay: cells; assay type: functional, cell-based; details: Homo sapiens
Description: SANGER: Inhibition of human YT cell growth in a cell viability assay.

NCI-H719 = assay: cells; assay type: functional, cell-based; details: Homo sapiens;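 also: growth inhibition of the cultured cell line, read out with a viability assay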
Description: SANGER: Inhibition of human NCI-H719 cell growth in a cell viability assay.

CAL-148 = assay: cells; assay type: functional, cell-based; details: Homo sapiens
Description: SANGER: Inhibition of human CAL-148 cell growth in a cell viability assay.

NCI-H520 = assay: cells; assay type: functional, cell-based; details: Homo sapiens;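 also: growth inhibition of NCI-H520 cells, measured by a cell viability assay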
Description: SANGER: Inhibition of human NCI-H520 cell growth in a cell viability assay.

SW837 = assay: cells; assay type: functional, cell-based; details: Homo sapiens;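 also: growth inhibition of SW837 cells, determined with a cell viability assay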
Description: SANGER: Inhibition of human SW837 cell growth in a cell viability assay.

MRK-nu-1 = assay: cells; assay type: functional, cell-based; details: Homo sapiens;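 also: cell viability assay measuring growth suppression of human MRK-nu-1 cells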
Description: SANGER: Inhibition of human MRK-nu-1 cell growth in a cell viability assay.

EB2 = assay: cells; assay type: functional, cell-based; details: Homo sapiens;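 also: growth inhibition of EB2 cells, read out with a cell viability assay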
Description: SANGER: Inhibition of human EB2 cell growth in a cell viability assay.

T-24 = assay: cells; assay type: functional, cell-based; details: Homo sapiens;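 also: growth inhibition of T-24 cells, read out with a cell viability assay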
Description: SANGER: Inhibition of human T-24 cell growth in a cell viability assay.

NCI-H1417 = assay: cells; assay type: functional, cell-based; details: Homo sapiens;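 also: human NCI-H1417 cells, growth inhibition determined with a cell viability readout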
Description: SANGER: Inhibition of human NCI-H1417 cell growth in a cell viability assay.

GAMG = assay: cells; assay type: functional, cell-based; details: Homo sapiens;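 also: cell growth inhibition measured by a viability assay in the GAMG human cell line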
Description: SANGER: Inhibition of human GAMG cell growth in a cell viability assay.

AGS = assay: cells; assay type: functional, cell-based; details: Homo sapiens;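 also: growth inhibition of AGS cells, determined with a cell viability assay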
Description: SANGER: Inhibition of human AGS cell growth in a cell viability assay.

NCI-H1755 = assay: cells; assay type: functional, cell-based; details: Homo sapiens;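 also: cell viability readout used to measure growth inhibition of NCI-H1755 cells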
Description: SANGER: Inhibition of human NCI-H1755 cell growth in a cell viability assay.

TE-15 = assay: cells; assay type: functional, cell-based; details: Homo sapiens;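 also: cell viability readout of growth inhibition in TE-15 cells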
Description: SANGER: Inhibition of human TE-15 cell growth in a cell viability assay.

KYSE-180 = assay: cells; assay type: functional, cell-based; details: Homo sapiens;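 also: growth inhibition of KYSE-180 cells, read out with a cell viability assay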
Description: SANGER: Inhibition of human KYSE-180 cell growth in a cell viability assay.

NUGC-3 = assay: cells; assay type: functional, cell-based; details: Homo sapiens;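 also: growth inhibition of human NUGC-3 cells, read out with a cell viability assay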
Description: SANGER: Inhibition of human NUGC-3 cell growth in a cell viability assay.

HTC-C3 = assay: cells; assay type: functional, cell-based; details: Homo sapiens
Description: SANGER: Inhibition of human HTC-C3 cell growth in a cell viability assay.

PC-3 = assay: cells; assay type: functional, cell-based; details: Homo sapiens
Description: SANGER: Inhibition of human PC-3 cell growth in a cell viability assay.

SW1463 = assay: cells; assay type: functional, cell-based; details: Homo sapiens
Description: SANGER: Inhibition of human SW1463 cell growth in a cell viability assay.

Measured: IC50

CC(O)(CS(=O)(=O)c1ccc(F)cc1)C(=O)Nc1ccc(C#N)c(C(F)(F)F)c1 (centres undefined) [BICALUTAMIDE]
> 1020 nM: all assays above
